Measurements reported in patent US8455468B2, “Methods for the treatment of a traumatic central nervous system injury” (priority 2005, dated 2013).

Assays:
acute TBI [1] = test: Phase II ProTECT trial: physiological parameters during infusion; type: in vivo, human
Source text: Primary Data Analysis—Treatment and placebo groups were compared with respect to a variety of demographic, historical and prehospital characteristics to ensure that important independent predictors of outcome were equally distributed. Next, the groups were compared with respect to rates of adverse and serious adverse events, using Fisher's exact test. Generalized linear model analysis using a negative binomial distribution was used to compare rates of events that occurred multiple times per patient within the first 30 days (McCullagh and Nelder (1989) Generalized Linear Models (2nd ed, Chapman & Hill)). Then, group specific differences in 30-day outcomes. Fisher's exact test was used to analyze GOSE scores dichotomized into “good or moderate recovery” versus all other levels. Wilcoxon's rank sum test was used to compare group specific DRS scores. Mean and median durations of coma and post-traumatic amnesia were compared using student's t-test. All analyses were stratified on an a priori basis by brain injury severity (iGCS 4-8 (severe) versus iGCS 9-12 (moderate)). Longitudinal mixed effects models were used to analyze ICP-TIL as well as other hourly or daily clinical measurements from enrollment through treatment day 4.

clinical = conditions: human, in vivo
Protocol: Multiple blood samples were obtained from 11 female and 21 male trauma patients receiving PG and 1 female and 3 male patients receiving placebo infusions for 72 h. Values for CSS, CL, t1/2 and Vd were obtained using AUC(0-72) and post-infusion blood samples.
This study was approved by the Institutional Review Board of Emory University, the Drug Safety Monitoring Board (NINDS) and the FDA (IND #58,986). After obtaining informed consent, thirty-six patients meeting the inclusion criteria outlined as follows were studied. […] Inclusion criteria required that each patient be ≧18 years old, have a closed head injury arising from blunt trauma, have a moderate to severe brain injury (Index Glasgow Coma Score (GCS) 4-12) and arrive in the Emergency Department and obtain informed consent (from next-of-kin) in less than 11 hours post injury.
Aliquots of each solution were assayed for final concentration and sterility. […] Each kit contained six vials. […] The placebo kits were also formulated with 95% ethanol. Because of the alcohol concentration, doses of study drug were mixed with Intralipid® immediately prior to infusion. Each infusion dose was administered over 12 hours and repeated every 12 hours for a total of 72 hours. […] The dosing worksheet was also used to calculate the volume of study medication to be diluted in Intralipid® for each of the remaining infusion reservoirs at a standard rate of 10 cc/hr.
Nine (5 ml) samples were obtained at the following times during the infusion: pre-infusion (0), 4, 6, 12, 24, 36, 48, 60, and 72 hours. An additional five samples were obtained following cessation of infusion at: 0.5, 1, 2, 4 and 8 hours. Samples were allowed to clot, and then centrifuged. After that, the serum was removed and stored at −70° C. until analyzed.
The primary pharmacokinetic parameter, CL, was estimated as the ratio of the dose to area under the serum concentration-time curve (AUC). AUC's were calculated using the linear trapezoidal rule (Veng-Pedersen (1989) Clin Pharmacokinet, 17(6):424-40). The elimination phase rate constant, ke, was calculated from the serum concentration-time data following the termination of the infusion using iterative non-linear regression (WinNonlin®, Pharsight Corporation, Mountain View, Calif.). Volume of Distribution was estimated as the ratio of CL and ke. Css was estimated as the ratio of Dose and CL. Actual Css was defined as the concentration achieved when the slope of the serum concentration-time curve for three or more consecutive samples was not different from zero.
Predicted Css concentrations were calculated as the ratio of the infusion rate/clearance. Differences between predicted and measured Css were made using a ‘t’ test for repeated measures. A Bland-Altman analysis was conducted to assess the magnitude of any bias associated with this approach (Bland and Altman (1986) Lancet, 1(8476):307-10). Pharmacokinetic parameter comparisons between male and female were accomplished using a ‘t’ test for independent means. A p value of less than 0.05 was considered the minimum level for rejection of the null hypothesis.

acute TBI [2] = test: Phase II ProTECT trial: outcome variables 30 days post injury; type: in vivo, human
Source text: In addition to monitoring subjects for signs of harm, we hoped to detect signals of activity. […] For this preliminary study, our primary outcome of interest was Glasgow Outcome Scale Extended (GOSE) 30 days post-injury. […] Thirty days following each injury event, we assessed each patient's Glasgow Outcome Score Extended (GOSE) and Disability Rating Scale (DRS). Patients who were severely impaired were classified as “not testable”-a surrogate marker for a poor outcome. Reliability codes were used to record reasons for non-administration of a particular measure, such as physical impairment (e.g., hemiparesis) cognitive impairment (e.g., could not understand instructions), or intoxication. One-year outcomes will be reported at a later date. […] Our secondary aim was to look for signs of drug activity by assessing several measures of outcome. Our a priori primary measure of outcome was the Glasgow Outcome Scale-Extended ([…] et al. (1998) Journal of Neurotrauma 15(8):587-597). […] (1987) Journal of Neurosurgery 67(6):832-840) and 5) the Disability Rating Scale (DRS) (Hall et al. […] Variables determined to be independently associated with all-cause mortality or CNS related-death, such as iGCS (dichotomized into moderate versus severe), injury severity score and Marshall CT score were incorporated in a stepwise logistic regression analyses. […]

acute TBI [3] = system: acute TBI
Protocol: This phase II, randomized, double blind, placebo-controlled clinical trial was conducted at an urban, level I trauma center. 100 adults presenting within 11 hours of a blunt TBI with a Glasgow Coma Scale score of 4-12 were enrolled with proxy consent. […] Blinded observers closely monitored patients for the occurrence of adverse events, and initial functional outcomes were assessed 30 days post-injury. The primary safety outcome was difference in adverse event rates, including mortality. The primary measure of activity was dichotomized Glasgow outcome scale extended (GOSE) 30 days post injury.
We also hoped to detect signals of activity.
According to the U.S. Food and Drug Administration, an “adverse event” is any undesirable medical event occurring to a subject in a clinical trial, whether or not related to the study drug. This includes events not seen at baseline, or worsened if present at baseline. “Serious adverse events” are defined as death, immediate risk of death, or suspicion that use or continued use would result in the patient's death, prolongation of existing hospitalization, persistent or significant disability/incapacity, or a congenital anomaly/birth defect.
These included any thromboembolic event (deep vein thrombosis, thrombophlebitis, ischemic myocardial infarction, pulmonary embolism, stroke or transient ischemic attack), elevated liver enzymes, temperature elevation, allergic reactions, and hyperglycemia. […] An independent internal safety monitor made the determination if an adverse event was associated with study treatment. Both the FDA and an independent NIH-appointed data safety monitoring board independently reviewed these determinations.
Interventions: Following proxy consent, patients were placed in one of 8 clinical subgroups defined by gender (male versus female), race (black versus all others) and TBI severity (moderate versus severe). […] This asymmetric approach was adopted at the request of our NIH-appointed DSMB to maximize the number of patients receiving study drug while maintaining blinding.
Whenever a patient was enrolled, the next kit in sequence for that subgroup was used to prepare infusions. […] The remaining vials were used to prepare 5 subsequent 12-hour infusions at the same standard rate of 10 mls/hour for a total of 3 days of treatment. Details of drug monitoring are reported elsewhere (Wright et al. (2005) J Clin Pharmacol 45(6):640-648).
Methods of Measurement: To assess drug safety, study personnel rounded daily to document the occurrence of adverse events (AEs) or serious adverse events (SAES). Hourly vital signs (blood pressure, heart rate, respiratory rate, temperature, and pulse oximetry), intracranial pressure readings, and other parameters (mean arterial pressure, cerebral perfusion pressure, and fluid balance), were abstracted from each patient's chart. Laboratory values were obtained from the hospital's information system, and concomitant medications and interventions were noted.
Whenever an SAE occurred, an independent board-certified neurosurgeon assessed its potential relationship to study treatment using pre-defined scale. SAEs were reported within 24 hours to the Institutional Review Board (IRB), our NIH-appointed Data Safety Monitoring Board (DSMB), and the U.S. Food and Drug Administration. All other adverse events were reported to on a weekly basis.
Primary Data Analysis—Treatment and placebo groups were compared with respect to a variety of demographic, historical and prehospital characteristics to ensure that important independent predictors of outcome were equally distributed. Next, the groups were compared with respect to rates of adverse and serious adverse events, using Fisher's exact test.

[4] = Stability of progesterone solutions (HPLC-UV); type: physicochemical
Source text: For all stability testing, the method of […], et al. was used with minor modifications ([…], et al. (1999) Journal of Pharmaceutical & Biomedical Analysis, 19(5):803-8). The method was originally validated to assess the stability of medroxyprogesterone acetate and estradiol valerate tablets. It is an isocratic HPLC-UV method utilizing external standardization. A 5 micron, 4.6×250 mm BDS-Hypersil C-18 column (Keystone Scientific) was used and the analyses were completed on an Agilent 1100 model HPLC system with photodiode array detector. The mobile phase consisted of 40% 0.07M ammonium acetate buffer, pH 7.2 and 60% acetonitrile. Detection was at […]. […] Reproducibility as assessed by 10 injections of the same preparation on multiple different days was always less that 10%. […] A five point standard curve was run with each analysis.

moderate to severe TBI = test: Pilot phase II randomized double-blind trial of progesterone for traumatic brain injury, preliminary evaluation (Example 2); type: in vivo, human
Protocol: The administration protocol was carried out was described above in Example 1.
To determine if a therapeutic response was achieved, the following endpoints were monitored: • ICP reduction determined by calculating “therapeutic intensity level” (ICP-TIL); • duration of coma (injury to awaking); • mortality one-month post injury; • neurological outcome 1 month and 1 year post-injury, as determined by Glasgow outcome scale (GOS), Disability rating scale (DRS) and Galveston orientation and amnesia test (GOAT).
The administration protocol and pharmaceutical composition administered are described in detail in Example 1. Follow up regarding condition occurred at 30 days and 1 year.

[5] = Solubility of progesterone in carrier; type: physicochemical

## CC(=O)[C@H]1CC[C@H]2[C@@H]3CCC4=CC(=O)CC[C@]4(C)[C@H]3CC[C@]12C [progesterone, pregn-4-ene-3,20-dione]
Acute TBI [1]; first 4 days post-injury, subjects with monitors, not statistically significant
  mean intracranial pressure levels (ICPs) trend: remained stable
Acute TBI [1]; in vivo
  Mean Duration of Pressures Exceeding Threshold Values: CPP < 60: 6.9 h
  Mean Duration of Pressures Exceeding Threshold Values: ICP > 25: 5.0 h
  Mean Duration of Pressures Exceeding Threshold Values: MAP < 70: 2.5 h
  Mean Duration of Pressures Exceeding Threshold Values: Systolic BP < 90: 2.7 h
  Mean Frequency of Pressures Exceeding Threshold Values: CPP < 60, Rate/1000 consecutive readings: 92.9
  Mean Frequency of Pressures Exceeding Threshold Values: ICP > 25, Rate/1000 consecutive readings: 70.2
  Mean Frequency of Pressures Exceeding Threshold Values: MAP < 70, Rate/1000 consecutive readings: 29.5
  Mean Frequency of Pressures Exceeding Threshold Values: Systolic BP < 90, Rate/1000 consecutive readings: 32.1
  Percent of Patients with Clinical Values Exceeding the Threshold: CPP < 60: 48.7%
  Percent of Patients with Clinical Values Exceeding the Threshold: ICP > 25: 32.4%
  Percent of Patients with Clinical Values Exceeding the Threshold: MAP < 70: 29.0%
  Percent of Patients with Clinical Values Exceeding the Threshold: Systolic BP < 90: 29.0%
Acute TBI [1]; infusion day 0
  Cerebral Perfusion Pressure, mean: 70.3 mmHg
Acute TBI [1]; infusion day 1
  Cerebral Perfusion Pressure, mean: 73.4 mmHg
  Fluid Balance, mean: 767.9 + mls
Acute TBI [1]; infusion day 2
  Cerebral Perfusion Pressure, mean: 75.9 mmHg
  Fluid Balance, mean: 1189.5 + mls
Acute TBI [1]; infusion day 3
  Cerebral Perfusion Pressure, mean: 74.9 mmHg
  Fluid Balance, mean: 802.0 + mls
Acute TBI [1]; infusion day 4
  Cerebral Perfusion Pressure, mean: 73.8 mmHg
  Fluid Balance, mean: 818.7 + mls
clinical; both
  maintenance infusion rate to achieve target concentration of 450±100 ng/mL: approximately 0.8 mg/kg/h
clinical; both, CL
  clearance: 1.73 L/h/kg
clinical; both, terminal half-life
  half-life: 1.78 ± 1 h
clinical; female
  Vd: 1.33 L/kg
  concentration at 0 h: 2.86 ± 1.37 ng/mL
clinical; female, CL
  clearance: 1.88 L/h/kg
clinical; male
  Vd: 1.62 L/kg
  concentration at 0 h: 2.53 ± 1.73 ng/mL
clinical; male, CL
  clearance: 1.66 L/h/kg
clinical; male, iv
  clearance: 1.33 L/h/kg
Acute TBI [2]; Index GCS = 9-12
  Disability Rating Score: Total DRS, mean: 5
Acute TBI [2]; moderately brain-injured patients
  DRS scores vs placebo: significantly better DRS scores
Acute TBI [3]; 30-day adverse event rate
  Death within 30 days: 13.0%
Acute TBI [3]; both, human, in vivo, 30 days
  Acute respiratory distress syndrome: 2.6%
  Cardiac Arrhythmia: 5.2%
  Central nervous system infection: 1.3%
  Cholestatic Jaundice: 6.5%
  Fever: 70.1%
  Gastrointestinal Bleed: 5.2%
  Hyperglycemia-non DM: 27.3%
  Hypertension: 11.7%
  Hypotension: 9.1%
  Hypothermia: 5.2%
  Hypoxemia: 11.7%
  Increase Liver Enzyme: 6.5%
  Phlebitis at Injection Site: 1.3%
  Rash or Hives: 2.6%
  Seizures: 5.2%
  Sepsis: 2.6%
  Shock: 2.6%
  Suspected Pneumonia: 11.7%
  Syndrome of inappropriate ADH: 1.3%
  Tachycardia: 24.7%
  Thromboembolic Disease: 3.9%
Acute TBI [3]; in vivo
  adverse events specifically ascribed to administration: two cases of superficial phlebitis at the IV site
  deep vein thrombosis: Three patients
  rise in mean temperature over the infusion interval, treatment by time interaction slope: −0.0055
  serious adverse events attributed to study drug: No serious adverse events were attributed to progesterone
[4]
  stability of Intralipid solutions containing progesterone in 95% ethyl alcohol: ≥ 24 h
[4]; room temperature
  stability of solution of progesterone in 95% ethyl alcohol: up to 2 years
Moderate to severe TBI; vs control
  reduction in brain deaths: 60%
Moderate to severe TBI; vs group B, p=0.0295 Fisher's exact test
  proportion of subjects experiencing brain death: significantly lower proportion
[5]
  solubility: soluble only in alcohol
